Reference: PMC8388771, “Cationic Peptidomimetic Amphiphiles Having a N-Aryl- or N-Naphthyl-1,2,3-Triazole Core Structure Targeting Clostridioides (Clostridium) difficile: Synthesis, Antibacterial Evaluation, and an In Vivo C. difficile Infection Model” (Antibiotics, 2021)
Converted amounts (≈) assume the structure as drawn. Where two headings read alike, the source gives them in different places.

Key:
S. aureus ATCC 29213 [1] = tested on: S. aureus ATCC 29213; parameters: method as in ref 30 (1), 31 (2, 4), 19 (3); settings: Table 2; ref 30 (1), 31 (2, 4), 19 (3); cited from earlier work
S. aureus NCTC 10442 [2] = tested on: S. aureus NCTC 10442; parameters: method as in ref 31 (2, 4), 19 (3); settings: Table 2; MRSA; ref 31 (2, 4), 19 (3); cited from earlier work
E. faecalis ATCC 29212 [3] = tested on: E. faecalis ATCC 29212; parameters: method as in ref 30 (1), 31 (2, 4), 19 (3); settings: Table 2; ref 30 (1), 31 (2, 4), 19 (3); cited from earlier work
S. pneumoniae ATCC 49619 [4] = tested on: S. pneumoniae ATCC 49619; parameters: method as in ref 30 (1), 31 (2, 4), 19 (3); settings: Table 2; ref 30 (1), 31 (2, 4), 19 (3); cited from earlier work
E. coli ATCC 25922 [5] = tested on: E. coli ATCC 25922; parameters: method as in ref 30 (1), 31 (2, 4), 19 (3); settings: Table 2; ref 30 (1), 31 (2, 4), 19 (3); cited from earlier work
sheep erythrocytes = settings: cited from earlier work; for in vitro hemolytic activity: in words
[6] = parameters: method as in PMID 30901686; settings: cited from earlier work; for appearance in the solubility assay: Figure 1
[7] = tested on: C. difficile strain M7404 (RT027); parameters: method as in ref 30 (compound 1), 19 (compound 3); settings: Table 2 footnote g; ref 30 (compound 1), 19 (compound 3); cited from earlier work
[8] = tested on: C. difficile strain R20291; parameters: method as in ref 30 (compound 1), 19 (compound 3); settings: Table 2 footnote h; ref 30 (compound 1), 19 (compound 3); cited from earlier work
C. difficile [9] = settings: Figure 1; cited from earlier work
C. difficile 132 (RT027) [10] = tested on: C. difficile 132 (RT027); parameters: method as in PMID 30831407; settings: Table 2; cited from earlier work
HEK293 cells [11] = tested on: HEK293 cells; parameters: method as in PMID 30831407; settings: Table 2; cited from earlier work
S. aureus ATCC 43300 [12] = tested on: S. aureus ATCC 43300; parameters: method as in PMID 30831407; settings: Table 2; MRSA; cited from earlier work
C. difficile [13] = tested on: C. difficile; parameters: method as in PMID 30901686; settings: murine CDI model, cited from earlier work
C. difficile ATCC 700057 = test: Primary MIC assay, C. difficile ATCC 700057; assay type: cell-based, Clostridioides difficile; settings: Clostridioides difficile, ATCC700057; Table 1; read-out: MIC C. difficile ATCC 700057
Outline: (§1)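 Screening is conducted by minimum inhibitory concentration testing according to CLSI aerobic or anaerobic protocols, as appropriate to each strain.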

C. difficile 132 (RT027) [14] = test: Primary MIC assay, C. difficile 132 (RT027); assay type: cell-based, Clostridioides difficile; settings: Clostridioides difficile; Table 1; read-out: MIC C. difficile 132 (RT027)
Outline: as §1

S. aureus ATCC 29213 [15] = test: Primary MIC assay, S. aureus ATCC 29213; assay type: cell-based; settings: Staphylococcus aureus, ATCC29213; Table 1; read-out: MIC S. aureus ATCC 29213
Outline: as §1

S. aureus NCTC 10442 [16] = test: Primary MIC assay, S. aureus NCTC 10442 (MRSA); assay type: cell-based; settings: Staphylococcus aureus; Table 1; MRSA; read-out: MIC S. aureus NCTC 10442
Outline: as §1

E. faecalis ATCC 29212 [17] = test: Primary MIC assay, E. faecalis ATCC 29212; assay type: cell-based, Enterococcus faecalis; settings: Table 1
Outline: as §1

S. pneumoniae ATCC 49619 [18] = test: Primary MIC assay, S. pneumoniae ATCC 49619; assay type: cell-based, Streptococcus pneumoniae; settings: Table 1
Outline: as §1

E. coli ATCC 25922 [19] = test: Primary MIC assay, E. coli ATCC 25922; assay type: cell-based; settings: Escherichia coli, ATCC25922; Table 1; read-out: MIC E. coli ATCC 25922
[20] = Cytotoxicity (CC50) assay by CO-ADD; assay type: cell-based, human; settings: human, HEK293 cells (ATCC CRL-1573); Table S1; HEK293 cells
HEK293 cells [21] = test: Cytotoxicity (CC50) assay by CO-ADD; assay type: cell-based, human; settings: Table 1; cytotoxicity on HEK293 cells, tested at ≤32 µg/mL
human erythrocytes = test: Hemolysis assay, HC50 determination; assay type: cell-based
Method: Hemolysis assay (human erythrocytes)–HC50 determination. These were performed as described previously.

S. aureus ATCC 43300 [22] = test: CO-ADD MIC assay, S. aureus ATCC 43300 (MRSA); assay type: cell-based; settings: Table S1, MRSA, CO-ADD
Outline: (§2)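 Secondary screening was run by CO-ADD as whole-cell growth inhibition assays, with MIC as the read-out. Vancomycin, colistin, fluconazole and tamoxifen served as positive controls.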

P. aeruginosa ATCC 27853 = test: CO-ADD MIC assay, P. aeruginosa ATCC 27853; assay type: cell-based; settings: Pseudomonas aeruginosa, ATCC27853, Table S1
Outline: as §2

[23] = tested on: K. pneumoniae ATCC 700603; test: CO-ADD MIC assay, K. pneumoniae ATCC 700603; assay type: cell-based; settings: Klebsiella pneumoniae, ATCC700603, Table S1, multi-drug resistant
Outline: as §2

A. baumannii ATCC 19606 = test: CO-ADD MIC assay, A. baumannii ATCC 19606; assay type: cell-based; settings: Acinetobacter baumannii, ATCC19606, Table S1
Outline: as §2

E. coli ATCC 25922 [24] = test: CO-ADD MIC assay, E. coli ATCC 25922; assay type: cell-based
Outline: as §2

C. albicans ATCC 90028 = test: CO-ADD MIC assay, C. albicans ATCC 90028; assay type: cell-based
Outline: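 Whole-cell growth inhibition (MIC) screening run by CO-ADD. Fluconazole served as antifungal positive control.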

CC(C)CCOc1ccc2ccccc2c1-c1c(OCC(=O)N[C@H](CCCNC(=N)N)Cn2cc(-c3ccccc3)nn2)ccc2ccccc12 [Compound 3]
MIC S. aureus ATCC 29213 (S. aureus ATCC 29213 [1]): 2 µg/mL (≈ 2.92 µM)
MIC S. aureus NCTC 104422 (S. aureus NCTC 10442 [2]): 2 µg/mL (≈ 2.92 µM)
MIC E. faecalis ATCC 29212 (E. faecalis ATCC 29212 [3]): 4 µg/mL (≈ 5.85 µM)
MIC S. pneumoniae ATCC 49619 (S. pneumoniae ATCC 49619 [4]): 8 µg/mL (≈ 11.7 µM)
MIC E. coli ATCC 25922 (E. coli ATCC 25922 [5]): >128 µg/mL
Haemolysis (sheep erythrocytes; Figure 1): 86%
in vitro hemolytic activity (sheep erythrocytes): high
appearance in the solubility assay [6]: flocculation
SR = solubility ratio relative to that of compound 1 [6]: 1
solubility during preparation in a 10% DMSO solution ([6]; precipitation): poor solubility
MIC C. difficile strain M7404 (RT027) [7]: 8 ^g μg/mL
MIC C. difficile strain R20291 (RT207) [8]: 8 ^h μg/mL
MIC against C. difficile (C. difficile [9]): 8 µg/mL (≈ 11.7 µM)

CC(C)CCOc1ccccc1-c1ccccc1OCc1cn(C[C@@H](CCCCN)NC(=O)[C@@H](CCCNC(=N)N)n2cc(C3CCCCC3)nn2)nn1 [Compound 4]
MIC C. difficile 132 (RT027) (C. difficile 132 (RT027) [10]): 8 µg/mL (≈ 10.8 µM)
MIC S. aureus ATCC 29213 (S. aureus ATCC 29213 [1]): 8 µg/mL (≈ 10.8 µM)
MIC S. aureus NCTC 104422 (S. aureus NCTC 10442 [2]): 4 µg/mL (≈ 5.39 µM)
MIC E. faecalis ATCC 29212 (E. faecalis ATCC 29212 [3]): 8 µg/mL (≈ 10.8 µM)
MIC S. pneumoniae ATCC 49619 (S. pneumoniae ATCC 49619 [4]): 4 µg/mL (≈ 5.39 µM)
MIC E. coli ATCC 25922 (E. coli ATCC 25922 [5]): 8 µg/mL (≈ 10.8 µM)
CC50 (HEK293 cells [11]): 14.2 µg/mL (≈ 19.1 µM)
MIC S. aureus ATCC 43300 (S. aureus ATCC 43300 [12]): 4 µg/mL (≈ 5.39 µM)
% hemolysis at 50 µg/mL (sheep erythrocytes; Table 2 HC50 column, footnote i, sheep erythrocytes): 23% ^i
in vitro hemolytic activity (sheep erythrocytes): low
appearance in the solubility assay [6]: homogenous suspension
SR = solubility ratio relative to that of compound 1 [6]: 4
MIC against C. difficile (C. difficile [9]): 4 µg/mL (≈ 5.39 µM)
survival rate at 24 h (C. difficile [13]; 10% DMSO group 0%): 60%
survival rate after 48 h (C. difficile [13]): 0%

CC(C)CCc1cn(-c2c(OCC(=O)N[C@H](CCCNC(=N)N)Cn3cc(C4CCCCC4)nn3)ccc3ccccc23)nn1 [Compound 21]
MIC (C. difficile ATCC 700057): 128 µg/mL (≈ 208 µM)
MIC (C. difficile 132 (RT027) [14]): > 128 µg/mL
MIC (S. aureus ATCC 29213 [15]): 8 µg/mL (≈ 13 µM)
MIC (S. aureus NCTC 10442 [16]): 8 µg/mL (≈ 13 µM)
MIC (E. faecalis ATCC 29212 [17]; Enterococcus faecalis, ATCC29212, read-out: MIC E. faecalis ATCC 29212): 16 µg/mL (≈ 26 µM)
MIC E. faecalis ATCC 29212 (E. faecalis ATCC 29212 [17]): 4 µg/mL (≈ 6.51 µM)
MIC (S. pneumoniae ATCC 49619 [18]; Streptococcus pneumoniae, ATCC49619, read-out: MIC S. pneumoniae ATCC 49619): 16 µg/mL (≈ 26 µM)
MIC S. pneumoniae ATCC 49619 (S. pneumoniae ATCC 49619 [18]): 4 µg/mL (≈ 6.51 µM)
MIC (E. coli ATCC 25922 [19]): 128 µg/mL (≈ 208 µM)
CC50 [20]: > 32 µg/mL
CC50 (HEK293 cells [21]): >32 µg/mL
HC50 (human erythrocytes; Table 1, lysis of human erythrocytes): >32 µg/mL
HC50 (human erythrocytes; Table S1, footnote says lysis of sheep erythrocytes): > 32 µg/mL
MIC (S. aureus ATCC 43300 [22]; Staphylococcus aureus, read-out: MIC S. aureus ATCC 43300): 16 µg/mL (≈ 26 µM)
MIC S. aureus ATCC 43300 (S. aureus ATCC 43300 [22]): 8 µg/mL (≈ 13 µM)
MIC (P. aeruginosa ATCC 27853): > 32 µg/mL
MIC [23]: > 32 µg/mL
MIC (A. baumannii ATCC 19606): > 32 µg/mL
MIC (E. coli ATCC 25922 [24]; Escherichia coli, ATCC25922, Table S1): 32 µg/mL (≈ 52 µM)
MIC E. coli ATCC 25922 (E. coli ATCC 25922 [24]; Table S1): > 32 µg/mL
MIC (C. albicans ATCC 90028; Candida albicans, ATCC90028, Table S1): 32 µg/mL (≈ 52 µM)
MIC C. albicans ATCC 90028 (C. albicans ATCC 90028; Table S1): > 32 µg/mL
